From US7732666B1, “O-methyltransferase gene from sorghum cloning, expression, transformation and characterization” (priority 2006, dated 2010)
Like-named read-outs stand apart in the source and are kept apart here.

Legend:
SbOMT1 [1] = biological target: T1, SbOMT1 (Sorghum bicolor, UniProt A8QW52); assay: GC-MS analysis of products of recombinant SbOMT1 reacted with resveratrol; assay type: biochemical
T1 construct: full-length open reading frames for all three OMTs were overexpressed in E. coli as N-terminal polyhistidine fusions; polyhistidine (pET15b) (N); made in house; host or cells: E. coli BL21/DE3
T1 sequence (A8QW52 1-376): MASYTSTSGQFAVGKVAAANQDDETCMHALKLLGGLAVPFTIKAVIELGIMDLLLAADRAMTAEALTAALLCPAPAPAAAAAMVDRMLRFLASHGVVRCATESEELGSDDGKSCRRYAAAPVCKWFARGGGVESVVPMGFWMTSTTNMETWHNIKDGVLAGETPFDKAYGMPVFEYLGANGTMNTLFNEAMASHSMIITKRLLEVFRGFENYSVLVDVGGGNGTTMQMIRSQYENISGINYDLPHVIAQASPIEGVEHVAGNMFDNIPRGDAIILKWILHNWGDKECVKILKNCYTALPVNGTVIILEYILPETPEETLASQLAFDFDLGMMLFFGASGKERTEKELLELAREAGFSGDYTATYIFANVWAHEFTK
From the text: (§1) The products from these reactions were then chemically analyzed by gas chromatography/mass spectroscopy. […] Thus, only about 2% of the product obtained was pterostilbene; 88% was 3,5-dihydroxy-4′-methoxystilbene (FIG. 7B).

SbOMT1 [2] = biological target: T1, SbOMT1; assay: OMT enzymatic assay (radiometric, 14C-SAM) with recombinant SbOMT1; assay type: biochemical; details: relative to eugenol = 100%; 30 min at 30° C.
SbOMT3 = biological target: T2, SbOMT3 (Sorghum bicolor, UniProt A8QW53, DUP296-296); assay type: biochemical; details: for Relative Activity (%) of Recombinant SbOMT3: relative to 5-n-pentyl-resorcinol = 100%, 30 min at 30° C.; for Km: recombinant SbOMT3, alkylresorcinols and co-substrate SAM
T2 construct: full-length open reading frames for all three OMTs were overexpressed in E. coli as N-terminal polyhistidine fusions; polyhistidine (pET15b) (N); made in house; host or cells: E. coli BL21/DE3
T2 sequence (A8QW53 other isoform, or with tags, fused parts or gaps DUP296-296): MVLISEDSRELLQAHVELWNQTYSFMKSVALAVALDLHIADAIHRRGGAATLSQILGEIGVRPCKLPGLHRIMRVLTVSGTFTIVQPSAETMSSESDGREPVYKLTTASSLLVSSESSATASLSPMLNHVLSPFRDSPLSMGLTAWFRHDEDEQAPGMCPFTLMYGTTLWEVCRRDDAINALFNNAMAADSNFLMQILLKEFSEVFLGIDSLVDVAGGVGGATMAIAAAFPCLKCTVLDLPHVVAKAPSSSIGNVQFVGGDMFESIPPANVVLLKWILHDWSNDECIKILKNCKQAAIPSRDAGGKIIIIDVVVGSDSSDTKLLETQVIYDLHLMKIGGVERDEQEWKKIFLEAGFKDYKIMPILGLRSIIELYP
Procedure: (§2) Substrate specificities and kinetic parameters for recombinant OMTs were determined using to a modified protocol based on Wang and Pichersky (1999. Arch. Biochem. Biophys. 368: 172-180). All enzymatic assays consisted of 90 μL of assay buffer (250 mM Tris-HCl, pH 7.5, 10 mM DTT), 200 μL of purified enzyme preparation (200 μg protein/ml in), 5 μL of a 10 mM substrate stock solution (dissolved in 100% ethanol), and 5 μL of S-[methyl-^14C] adenosyl-L-methionine (40-60 mCi/mmol, 0.1 mCi/ml; ICN Biomedicals, Irvine, Calif.). Reactions were incubated for 30 min at 30° C. using a Thermomixer (Brinkman Instrument, Westbury, N.Y.), then quenched by addition of 25 μL of 6 N HCl. Radiolabeled products were subsequently extracted by the addition of 1 mL of hexane:ethyl acetate (1:1 vol/vol), and 300 μL of the (upper) organic phase were transferred to scintillation vials containing 5 mL of Ultima Gold scintillation fluid (Packard BioScience, Meriden, CT). Scintillation counts were performed using a Tri-Carb 1600TR Liquid Scintillation Analyzer (Packard BioScience). Protein concentrations and time points used for activity measurements were controlled to insure linearity of the assays. Kinetic parameters were determined from assays performed in triplicate as described above, but with substrate concentrations ranging from 10 μM to 10 mM. Data from enzyme kinetics experiments were fit to the Michaelis-Menten equation using the SigmaPlot v. 9.01 enzyme kinetics module (Systat Software, Inc., Point Richmond, Calif.).
(§3) A panel of benzene-derivatives containing different functional groups and substitution patterns were tested in enzyme assays with all three recombinant enzymes (Table 2), including a series of 5-n-alkylresorcinols of increasing chain length, as well as 5-n-pentadecatrienyl resorcinol, the proposed sorgoleone pathway intermediate and in vivo substrate for the participating OMT enzyme (FIG. 1). For these analyses, full-length open reading frames for all three OMTs were overexpressed in E. coli as N-terminal polyhistidine fusions, purified using an activated Ni-column, then radiometrically assayed in the presence of different substrates as described by Wang and Pichersky (1999, supra), with slight modifications.

[3] = tested on: human breast cancer and murine lymphoid neoplasma cell lines; details: cited from earlier work
[4] = tested on: Candida albicans, Cryptococcus neoformans, Staphylococcus aureus, and methicillin-resistant S. aureus; details: Rimando et al. 2003a; cited from earlier work
SbOMT2 = biological target: T3, SbOMT2 (Sorghum bicolor, UniProt A8QW51); assay: Reaction of recombinant SbOMT2 with resveratrol, GC-MS analysis; assay type: biochemical
T3 construct: full-length open reading frames for all three OMTs were overexpressed in E. coli as N-terminal polyhistidine fusions; polyhistidine (pET15b) (N); made in house; host or cells: E. coli BL21/DE3
T3 sequence (A8QW51 1-372): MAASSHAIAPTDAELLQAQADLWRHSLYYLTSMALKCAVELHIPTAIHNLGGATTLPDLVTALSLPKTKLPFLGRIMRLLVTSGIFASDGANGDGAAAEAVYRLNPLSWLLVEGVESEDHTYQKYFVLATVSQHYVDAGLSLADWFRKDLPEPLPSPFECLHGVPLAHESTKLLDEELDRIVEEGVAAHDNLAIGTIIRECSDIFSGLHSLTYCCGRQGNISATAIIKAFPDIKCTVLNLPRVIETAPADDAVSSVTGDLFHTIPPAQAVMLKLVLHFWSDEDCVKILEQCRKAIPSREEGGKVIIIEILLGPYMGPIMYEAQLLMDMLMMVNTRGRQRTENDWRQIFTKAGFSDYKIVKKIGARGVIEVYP
From the text: as §1

[5] = tested on: Phaeoacremonium aleophilum, Phaeomoniella chlamydospora, Libertella blepharis, Fomitiporia punctata and Stereum hirsutum; details: Mazzullo et al. 2000; cited from earlier work
CCCCCCc1cc(O)cc(O)c1 = assay: purified protein, by the assay type; assay type: biochemical, Sorghum bicolor; details: other: recombinant SbOMT3, alkylresorcinols and co-substrate SAM; pH 7.5; 30.0 °C
Procedure: as §2, §3

CCCCCCCc1cc(O)cc(O)c1 = assay: purified protein, by the assay type; assay type: biochemical, Sorghum bicolor; details: other: recombinant SbOMT3, alkylresorcinols and co-substrate SAM; pH 7.5; 30.0 °C
Procedure: as §2, §3

CCCCCc1cc(O)cc(O)c1 = assay: purified protein, by the assay type; assay type: biochemical, Sorghum bicolor; details: other: recombinant SbOMT3, alkylresorcinols and co-substrate SAM; pH 7.5; 30.0 °C
Procedure: as §2, §3

CCCCc1cc(O)cc(O)c1 = assay: purified protein, by the assay type; assay type: biochemical, Sorghum bicolor; details: other: recombinant SbOMT3, alkylresorcinols and co-substrate SAM; pH 7.5; 30.0 °C
Procedure: as §2, §3

[6] = substrate: Oc1ccc(C=Cc2cc(O)cc(O)c2)cc1; assay: purified protein, by the assay type; details: other: recombinant SbOMT1, substrate resveratrol; pH 7.5; 30.0 °C
[7] = recombinant SbOMT3, alkylresorcinols

Row | Molecule | Relative Activity (%) of Recombinant SbOMT1 (SbOMT1 [2]) | Relative Activity (%) of Recombinant SbOMT3 (SbOMT3) | other results
1 | COc1ccc(C=Cc2cc(O)cc(O)c2)cc1 [3,5-dihydroxy-4′-methoxystilbene] |  |  | share of the product obtained from reaction of SbOMT1 with resveratrol (SbOMT1 [1]): 88%
2 | COc1ccc(O)cc1 [4-Methoxyphenol] | 8.3 ± 0.5% | 3.3 ± 0.6% | 
3 | CCCCc1cc(O)cc(O)c1 [5-n-Butyl-resorcinol] | 1.1 ± 0.1% | 42.0 ± 1.2% | 
4 | CCCCCCCc1cc(O)cc(O)c1 [5-n-Heptyl-resorcinol] | 0% | 27.2 ± 1.3% | 
5 | CCCCCCc1cc(O)cc(O)c1 [5-n-Hexyl-resorcinol] | 0% | 79.4 ± 7.6% | 
6 | CCCCCCCCCc1cc(O)cc(O)c1 [5-n-Nonyl-resorcinol] | 0% | 3.3 ± 0.8% | 
7 | CCCCCCCCCCCCCCCc1cc(O)cc(O)c1 [5-n-Pentadecyl-resorcinol] | <1.0% | 5.0 ± 0.4% | 
8 | CCCCCc1cc(O)cc(O)c1 [5-n-Pentyl-resorcinol] |  | 100 ± 2.2% | 
9 | CCCc1cc(O)cc(O)c1 [5-n-Propyl-resorcinol] | 2.2 ± 0.9% | 11.8 ± 0.2% | Kcat (SbOMT3; [7]): 1.9 s^−1 × 10^4; V max (SbOMT3; [7]): 15.6 nmol/mg/h; Km (SbOMT3): 1440 µM
10 | C=CC/C=C\C/C=C\CCCCCCCc1cc(O)cc(O)c1 [5-n-[8′, 11′, 14′]-Pentadecatrienyl-resorcinol] |  | 14.9 ± 4.3% | activity of SbOMT3 relative to that for 5-pentadecyl resorcinol (SbOMT3; higher than saturated side chain analogue of identical length): approximately 3 fold
11 | O=C(O)/C=C/c1ccc(O)c(O)c1 [Caffeic acid] |  | 3.6 ± 0.6 3.6 ± 0.6% | 
12 | Oc1ccccc1O [Catechol] |  | 3.6 ± 0.6 3.6 ± 0.6% | 
13 | C=CCc1ccc(O)c(OC)c1 [Eugenol] | 100 ± 5.2% | 3.2 ± 0.5% | 
14 | COc1cc(/C=C/C(=O)O)ccc1O [Ferulic acid] | 3.1 ± 0.3% | 3.5 ± 0.6% | 
15 | COc1ccccc1O [Guaiacol] | 7.8 ± 0.5% | 3.2 ± 0.6% | 
16 | COc1cc(C)cc(O)c1 [Orcinol monomethyl ether] | 49.6 ± 1.6% | 3.5 ± 0.5% | 
17 | Cc1cc(O)cc(O)c1 [Orcinol] | 1.3 ± 0.7% | 4.5 ± 0.1% | 
18 | COc1cc(/C=C/c2ccc(O)cc2)cc(OC)c1 [Pterostilbene] |  |  | cytotoxicity against cancer cell lines [3]: cytotoxic
19 | COc1cccc(O)c1 [Resorcinol monomethyl ether] | 24.8 ± 1.1% | 3.2 ± 0.7% | 
20 | Oc1cccc(O)c1 [Resorcinol] |  | 4.1 ± 0.1% | 
21 | Oc1ccc(C=Cc2cc(O)cc(O)c2)cc1 [Resveratrol] |  |  | inhibition of human pathogens [4]: ineffective; reaction of SbOMT2 with resveratrol (SbOMT2): did not react; inhibition of esca fungi (mycelial growth) [5]: did not inhibit mycelial growth
22 | C[S+](CC[C@H](N)C(=O)[O-])C[C@H]1O[C@@H](n2cnc3c(N)ncnc32)[C@H](O)[C@@H]1O (stereo partly drawn) [SAM, S-Adenosyl-L-Methionine] |  |  | Km (SbOMT3; read-out: Km): 67.5 µM
23 | O=C(O)/C=C/c1ccc(O)cc1 [p-Coumaric acid] | 0% | 3.5 ± 0.4% | 
24 | SbOMT3 (Sorghum bicolor; DUP296-296) |  |  | Km (CCCCCCc1cc(O)cc(O)c1): 72 µM; Vmax (CCCCCCc1cc(O)cc(O)c1): 0.00042 µmol/min/mg; kcat (CCCCCCc1cc(O)cc(O)c1): 0.0003 s⁻¹; kcat/Km (CCCCCCc1cc(O)cc(O)c1): 4.2 M⁻¹ s⁻¹; Km (CCCCCCCc1cc(O)cc(O)c1): 23 µM; Vmax (CCCCCCCc1cc(O)cc(O)c1): 0.000173 µmol/min/mg; kcat (CCCCCCCc1cc(O)cc(O)c1): 0.00012 s⁻¹; kcat/Km (CCCCCCCc1cc(O)cc(O)c1): 5.2 M⁻¹ s⁻¹; Km (CCCCCc1cc(O)cc(O)c1): 152 µM; Vmax (CCCCCc1cc(O)cc(O)c1): 0.000653 µmol/min/mg; kcat (CCCCCc1cc(O)cc(O)c1): 0.00047 s⁻¹; kcat/Km (CCCCCc1cc(O)cc(O)c1): 3.1 M⁻¹ s⁻¹; Km (CCCCc1cc(O)cc(O)c1): 481 µM; Vmax (CCCCc1cc(O)cc(O)c1): 0.00055 µmol/min/mg; kcat (CCCCc1cc(O)cc(O)c1): 0.00039 s⁻¹; kcat/Km (CCCCc1cc(O)cc(O)c1): 0.81 M⁻¹ s⁻¹
25 | SbOMT1 (Sorghum bicolor) (protein) MASYTSTSGQFAVGKVAAANQDDETCMHALKLLGGLAVPFTIKAVIELGIMDLLLAADRAMTAEALTAALLCPAPAPAAAAAMVDRMLRFLASHGVVRCATESEELGSDDGKSCRRYAAAPVCKWFARGGGVESVVPMGFWMTSTTNMETWHNIKDGVLAGETPFDKAYGMPVFEYLGANGTMNTLFNEAMASHSMIITKRLLEVFRGFENYSVLVDVGGGNGTTMQMIRSQYENISGINYDLPHVIAQASPIEGVEHVAGNMFDNIPRGDAIILKWILHNWGDKECVKILKNCYTALPVNGTVIILEYILPETPEETLASQLAFDFDLGMMLFFGASGKERTEKELLELAREAGFSGDYTATYIFANVWAHEFTK |  |  | Km [6]: 16.9 ± 1.2 µM; Vmax [6]: 0.00014 µmol/min/mg; kcat [6]: 0.0001 s⁻¹; kcat/Km [6]: 5.9 M⁻¹ s⁻¹
